# Source: patent US20250282770A1, “BIOLUMINESCENT PROBES TO TRACK STEM CELLS IN VIVO” (THE BOARD OF TRUSTEES OF THE UNIVERSITY OF ILLINOIS, priority 2024, published 2025)
# Key:
# [1] = target: T1, ALDH1A1 (Homo sapiens, UniProt P00352); assay: Logic-gate activation of AlDeLuc by acid, ALDH1A1 and luciferase; dose dependence; assay type: biochemical
# T1 construct: inferred from Ni-NTA purification; made in house; host or cells: E. coli BL21(DE3)
# T1 sequence (P00352 1-501): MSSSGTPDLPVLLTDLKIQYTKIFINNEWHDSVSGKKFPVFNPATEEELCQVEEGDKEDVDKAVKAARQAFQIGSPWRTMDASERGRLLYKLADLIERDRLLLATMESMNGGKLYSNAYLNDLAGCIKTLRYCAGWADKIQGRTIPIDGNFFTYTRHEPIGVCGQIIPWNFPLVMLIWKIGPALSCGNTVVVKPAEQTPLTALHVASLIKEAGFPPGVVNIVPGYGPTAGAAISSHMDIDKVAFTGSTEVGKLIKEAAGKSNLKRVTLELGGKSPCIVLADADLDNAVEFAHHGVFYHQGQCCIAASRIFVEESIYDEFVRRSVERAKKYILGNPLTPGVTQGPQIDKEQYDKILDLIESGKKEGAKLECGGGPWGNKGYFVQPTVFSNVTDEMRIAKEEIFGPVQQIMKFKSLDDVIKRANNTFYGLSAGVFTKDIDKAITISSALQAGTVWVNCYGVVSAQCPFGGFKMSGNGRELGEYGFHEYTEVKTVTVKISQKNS
# Method: Dose-dependent Enhancement of AlDeLuc. The response of ALDH1A1 (0.4 μM) against different concentrations of AlDeLuc was measured in a black 96-well plate and was monitored using the IVIS imaging system. Various stocks of AlDeLuc were generated so that 20 μL of the probe solution gave the desired concentration. Stocks were prepared by the following: AlDeLuc was first dissolved in DMSO followed by a 60 minute incubation in equal volume 1 M HCl. Subsequently, the reaction was neutralized with 1 M NaOH and diluted with PBS. To a black 96-well plate, TEA buffer (pH 7.4), NAD^+ (2.5 mM), and either […], 5 μM, 10 μM, or 50 μM of AlDeLuc was added. After 60 minutes, each well was treated with ATP-MgSO4 (45 μL, prepared by mixing 17.78 mM ATP-Mg and 35.56 mM MgSO4 in a 1:1 ratio in PBS buffer) and luciferase (5 μL, 1 mg/mL in PBS containing 10% glycerol) to initiate bioluminescence production. Light was collected immediately after mixing, and the signal enhancement was determined relative to control wells not treated with enzymes. The total volume of each well was 200 μL (TEA (pH 7.4) with 0.2% DMSO). All data reported as the mean±standard deviation (n=4).
# Dose-dependent Activation of AlDeLuc by ALDH1A1. The response of AlDeLuc (5 μM) against different concentrations of ALDH1A1 was measured in a black 96-well plate and was monitored using the IVIS imaging system. To a black 96-well plate, PBS (pH 7.4), NAD^+, and either 0.05 μM, 0.1 μM, 0.4 μM, 2 μM, or 4 μM of ALDH1A1, was added AlDeLuc. Immediately after, each well was treated with ATP-MgSO4 (45 μL, prepared by mixing 17.78 mM ATP-Mg and 35.56 mM MgSO4 in a 1:1 ratio in PBS buffer) and luciferase (5 μL, 1 mg/mL in PBS containing 10% glycerol) to initiate bioluminescence production. Light was collected immediately after mixing, and the signal enhancement was determined relative to control wells not treated with enzymes. The total volume of each well was 200 μL (PBS (pH 7.4) with 0.2% DMSO). All data reported as the mean standard deviation (n=3).
# [2] = test system: A549 human lung carcinoma cells; assay: AlDeLuc activation in A549 cells, lysate bioluminescence; assay type: cell-based
# Method: Validation of ALDH-Mediated Activation of AlDeLuc in Human Lung Cancer Cells. A549 cells were cultured in T75 culture flasks. After two days, cells had become ˜90% confluent. An aliquot of HAMS FK12 media (1 mL) was removed from each flask and replaced with either disulfiram (DSF) (100 μM, 0.5% DMSO) or vehicle (0.5% DMSO). After incubation for one hour, the solutions were aspirated, the cells were washed with PBS, and resuspended in fresh HAMS FK12 media (9 mL). Each flask was then incubated with the AlDeLuc such that the final concentration of the probe is 100 µM and 1% DMSO. After 60 minutes this solution was aspirated, washed with fresh PBS, and detached from the culture flasks. The cells were then transferred to a 15 mL centrifuge tube and pelleted at 1000 rpm for 5 minutes at room temp. The cells were resuspended in PBS along with 10% protease inhibitor solution (1 protease inhibitor mini tablet per 10 mL of PBS, Pierce, Thermo Fisher Scientific) and sonicated on ice for 2.5 minutes (pulse 01, 01, 40%). […] ROIs were drawn around each well and the signal intensity was quantified using the Living Image Analysis software.
# Determining Sensitivity of AlDeLuc by Cell Concentration Changes. […] ROIs were drawn around each well and the signal intensity was quantified using the Living Image Analysis software.
structure (smiles),measurement,setting,value
"CCN(CC)c1ccc2nc(C3=N[C@@H](C(OC)OC)CS3)sc2c1 [AlDeLuc, (S)-2-(4-(dimethoxymethyl)-4,5-dihydrothiazol-2-yl)-N,N-diethylbenzo[d]thiazol-6-amine]",signal intensity versus amount of ALDH1A1,"[1]; AlDeLuc 5 μM, ALDH1A1 0 to 4 μM",highest ALDH1A1 concentration showed the most intense signal
same,signal intensity versus AlDeLuc concentration,"[1]; AlDeLuc 2 to 50 μM, ALDH1A1 0.4 μM",concentration-dependent increase
same,"bioluminescent signal when acidic conditions and ALDH1A1 applied separately, compared to both",[1]; luciferase 0.02 mg/mL,significantly attenuated
same,bioluminescence intensity increase,"[2]; 3.6×10^6 A549 cells, 100 μM, 60 min",56 fold
same,light emission relative to vehicle controls,"[2]; ~1.25×10^5 A549 cells, 20 μM, one hour",22.1 fold
